Experimental data from paper PMC8852625, “A Computer-Aided Approach for the Discovery of D-Peptides as Inhibitors of SARS-CoV-2 Main Protease” (Frontiers in Molecular Biosciences, 2022).
Like-named read-outs stand apart in the source and are kept apart here.

What was measured:
3CL^pro = settings: in vivo; cited from earlier work

Molecule: CC(C)(C)[C@H](NC(=O)C(F)(F)F)C(=O)N1C[C@H]2[C@@H]([C@H]1C(=O)N[C@H](C#N)C[C@@H]1CCNC1=O)C2(C)C [PF-07321332]
- phase I clinical trial result (3CL^pro): promising results

Molecule: ACE-HIE-HIE-PRO-TYR-NME [4P4]
- inhibition (loss) of 3CL^pro activity (SARS-CoV-2 3CL^pro; 20 μM peptide, 500 nM 3CL^pro, 30 min pre-incubation, 50 µM DABCYL-KTSAVLQ↓SGFRKME-EDANS, 30 min, 37°C, 20 mM Tris pH 7.2, 200 mM NaCl, 1 mM EDTA, 1 mM TCEP, fluorescence 360/460 nm, mean, n = 3): more than 80%
- residual activity of 3CL^pro (SARS-CoV-2 3CL^pro; 20 μM peptide, 500 nM 3CL^pro, 30 min pre-incubation, 50 µM fluorogenic substrate, 37°C, pH 7.2, mean, n = 3): below 20%

Molecule: ACE-HIE-ALA-PRO-TRP-NME [4P3]
- inhibition (loss) of 3CL^pro activity (SARS-CoV-2 3CL^pro; pH 7.2): more than 80%
- inhibition of 3CL^pro (in words) (SARS-CoV-2 3CL^pro; pH 7.2): most potent
- residual activity of 3CL^pro (SARS-CoV-2 3CL^pro; pH 7.2): below 20%
